Tests used:
[1] = target: Histone-lysine N-methyltransferase, H3 lysine-36 specific (Homo sapiens) (UniProt Q96L73); assay: Selectivity interaction (Methyltransferase screen (radiometric assays, panel of 8 PRMTs, 21 protein lysine methyltransferases, 3 DNA methyltransferases, and one RNA methyltransferase)) EUB0000272b NSD1
[2] = target: T1, cGMP-dependent protein kinase 2 (Homo sapiens) (UniProt Q13237); assay: Selectivity interaction (KinomeScan (DiscoverX)) EUB0000229b PRKG2; conditions: at 10 µM
T1 sequence (whole entry): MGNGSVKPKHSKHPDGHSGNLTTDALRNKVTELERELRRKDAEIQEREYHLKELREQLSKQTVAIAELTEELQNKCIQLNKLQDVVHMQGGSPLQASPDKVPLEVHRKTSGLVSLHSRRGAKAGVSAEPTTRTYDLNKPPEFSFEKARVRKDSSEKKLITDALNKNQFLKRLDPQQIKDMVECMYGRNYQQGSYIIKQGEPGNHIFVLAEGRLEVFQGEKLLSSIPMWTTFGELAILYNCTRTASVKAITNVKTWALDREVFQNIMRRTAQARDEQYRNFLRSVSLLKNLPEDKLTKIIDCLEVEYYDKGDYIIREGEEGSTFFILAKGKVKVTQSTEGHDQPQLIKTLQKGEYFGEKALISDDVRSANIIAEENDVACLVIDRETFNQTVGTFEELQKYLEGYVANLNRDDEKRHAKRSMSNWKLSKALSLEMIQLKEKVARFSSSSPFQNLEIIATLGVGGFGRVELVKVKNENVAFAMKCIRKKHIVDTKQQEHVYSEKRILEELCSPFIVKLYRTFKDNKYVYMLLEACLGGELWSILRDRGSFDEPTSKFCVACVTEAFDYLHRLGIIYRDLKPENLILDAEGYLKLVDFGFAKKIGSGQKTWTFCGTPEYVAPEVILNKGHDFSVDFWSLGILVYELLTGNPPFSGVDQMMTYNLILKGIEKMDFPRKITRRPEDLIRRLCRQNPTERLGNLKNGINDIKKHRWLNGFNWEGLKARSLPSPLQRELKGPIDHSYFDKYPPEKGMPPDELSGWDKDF

[3] = target: T2, Rhodopsin kinase GRK7 (Homo sapiens) (UniProt Q8WTQ7); assay: Selectivity interaction (KinomeScan (DiscoverX)) EUB0000229b GRK7; conditions: at 10 µM
T2 sequence (whole entry): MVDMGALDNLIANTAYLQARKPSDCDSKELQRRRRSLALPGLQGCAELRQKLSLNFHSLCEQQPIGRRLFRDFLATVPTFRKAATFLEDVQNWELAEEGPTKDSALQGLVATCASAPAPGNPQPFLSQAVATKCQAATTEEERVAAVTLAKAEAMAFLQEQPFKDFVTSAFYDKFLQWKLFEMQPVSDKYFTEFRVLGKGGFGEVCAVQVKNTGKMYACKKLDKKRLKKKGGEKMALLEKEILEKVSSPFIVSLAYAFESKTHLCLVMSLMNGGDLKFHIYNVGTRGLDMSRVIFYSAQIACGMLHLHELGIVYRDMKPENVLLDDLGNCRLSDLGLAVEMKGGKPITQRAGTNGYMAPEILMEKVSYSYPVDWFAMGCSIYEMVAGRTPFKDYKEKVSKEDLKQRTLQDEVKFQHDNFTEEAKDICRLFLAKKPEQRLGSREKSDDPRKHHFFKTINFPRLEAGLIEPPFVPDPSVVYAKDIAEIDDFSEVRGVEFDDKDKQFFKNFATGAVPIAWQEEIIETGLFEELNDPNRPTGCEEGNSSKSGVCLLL

[4] = target: Serine/threonine-protein kinase PLK1 (Homo sapiens, UniProt P53350); assay: Selectivity interaction (ActivX KiNativ screen (kinase selectivity in THP-1 cell lysates)) EUB0000639a PLK1; assay type: subcellular; conditions: lysate
Serine/threonine-protein kinase PLK1, sequence (P53350 whole entry): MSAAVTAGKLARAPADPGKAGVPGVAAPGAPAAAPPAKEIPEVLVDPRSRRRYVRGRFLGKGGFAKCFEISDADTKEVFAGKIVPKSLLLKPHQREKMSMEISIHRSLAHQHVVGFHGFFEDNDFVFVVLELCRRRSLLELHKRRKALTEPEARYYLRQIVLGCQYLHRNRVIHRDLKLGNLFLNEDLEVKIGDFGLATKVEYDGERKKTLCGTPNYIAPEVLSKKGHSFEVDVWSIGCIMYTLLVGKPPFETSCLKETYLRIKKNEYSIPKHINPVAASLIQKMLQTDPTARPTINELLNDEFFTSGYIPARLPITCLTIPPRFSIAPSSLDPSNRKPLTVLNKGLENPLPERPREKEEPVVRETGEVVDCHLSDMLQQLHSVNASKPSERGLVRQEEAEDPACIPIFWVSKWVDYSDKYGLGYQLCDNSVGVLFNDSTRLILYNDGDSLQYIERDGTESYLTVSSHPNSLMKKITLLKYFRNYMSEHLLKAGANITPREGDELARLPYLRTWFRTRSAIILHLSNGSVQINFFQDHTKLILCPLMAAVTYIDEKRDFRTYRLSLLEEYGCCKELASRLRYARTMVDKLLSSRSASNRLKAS

[5] = target: Ribosomal protein S6 kinase alpha-3 (Homo sapiens, UniProt P51812); assay: Selectivity interaction (ActivX KiNativ screen (kinase selectivity in THP-1 cell lysates)) EUB0000639a RPS6KA3; assay type: subcellular; conditions: lysate, at 0.04 µM
[6] = test system: Proto-oncogene tyrosine-protein kinase receptor Ret (Homo sapiens), P07949 [Y791F]; assay: (§1) Selectivity interaction (SelectScreen profiling (Invitrogen)) EUB0000607a RET; conditions: at 2 µM
Proto-oncogene tyrosine-protein kinase receptor Ret (Homo sapiens), P07949 [Y791F], sequence (P07949 whole entry Y791F): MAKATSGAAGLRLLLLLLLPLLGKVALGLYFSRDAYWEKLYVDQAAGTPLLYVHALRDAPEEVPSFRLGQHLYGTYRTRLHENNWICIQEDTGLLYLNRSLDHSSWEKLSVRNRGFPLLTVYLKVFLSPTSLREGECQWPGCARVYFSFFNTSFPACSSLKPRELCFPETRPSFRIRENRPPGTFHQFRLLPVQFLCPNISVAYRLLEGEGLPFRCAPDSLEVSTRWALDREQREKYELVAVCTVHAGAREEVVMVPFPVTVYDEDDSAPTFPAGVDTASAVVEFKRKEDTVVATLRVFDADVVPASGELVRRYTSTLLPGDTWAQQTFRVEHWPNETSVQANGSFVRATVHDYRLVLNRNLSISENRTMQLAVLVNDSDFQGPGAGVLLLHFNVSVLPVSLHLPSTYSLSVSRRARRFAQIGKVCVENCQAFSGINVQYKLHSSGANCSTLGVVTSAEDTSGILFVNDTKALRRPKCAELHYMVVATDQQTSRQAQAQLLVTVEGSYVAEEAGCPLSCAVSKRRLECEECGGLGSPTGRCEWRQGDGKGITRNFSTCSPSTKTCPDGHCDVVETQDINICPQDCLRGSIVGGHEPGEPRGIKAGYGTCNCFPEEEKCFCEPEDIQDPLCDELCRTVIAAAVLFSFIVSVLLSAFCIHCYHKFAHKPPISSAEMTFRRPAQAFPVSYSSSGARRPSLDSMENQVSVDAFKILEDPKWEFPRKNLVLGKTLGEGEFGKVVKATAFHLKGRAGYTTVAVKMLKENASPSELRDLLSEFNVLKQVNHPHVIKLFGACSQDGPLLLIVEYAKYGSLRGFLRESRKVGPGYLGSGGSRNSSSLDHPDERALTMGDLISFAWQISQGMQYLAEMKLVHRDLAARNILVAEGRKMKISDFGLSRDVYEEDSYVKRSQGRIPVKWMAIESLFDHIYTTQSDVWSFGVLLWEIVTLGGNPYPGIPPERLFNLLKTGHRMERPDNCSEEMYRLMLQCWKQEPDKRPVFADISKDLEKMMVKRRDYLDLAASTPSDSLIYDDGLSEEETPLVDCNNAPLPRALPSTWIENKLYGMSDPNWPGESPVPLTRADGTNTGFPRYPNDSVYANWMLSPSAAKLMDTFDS

[7] = test system: Proto-oncogene tyrosine-protein kinase receptor Ret (Homo sapiens), P07949 [V804L]; assay: as §1; conditions: at 2 µM
Proto-oncogene tyrosine-protein kinase receptor Ret (Homo sapiens), P07949 [V804L], sequence (P07949 whole entry V804L): as the sequence (P07949 whole entry Y791F) above, with F791Y, V804L counted along it

[8] = target: Proto-oncogene tyrosine-protein kinase receptor Ret (Homo sapiens, UniProt P07949); assay: as §1; conditions: at 2 µM
Proto-oncogene tyrosine-protein kinase receptor Ret, sequence (P07949 whole entry): as the sequence (P07949 whole entry Y791F) above, with F791Y counted along it

[9] = Selectivity interaction (KinomeScan (DiscoverX)) EUB0000595a PKNB; conditions: at 10 µM
[10] = target: T3, Peripheral plasma membrane protein CASK (Homo sapiens) (UniProt O14936); assay: Selectivity interaction (KinomeScan (DiscoverX)) EUB0000045b CASK
T3 sequence (whole entry): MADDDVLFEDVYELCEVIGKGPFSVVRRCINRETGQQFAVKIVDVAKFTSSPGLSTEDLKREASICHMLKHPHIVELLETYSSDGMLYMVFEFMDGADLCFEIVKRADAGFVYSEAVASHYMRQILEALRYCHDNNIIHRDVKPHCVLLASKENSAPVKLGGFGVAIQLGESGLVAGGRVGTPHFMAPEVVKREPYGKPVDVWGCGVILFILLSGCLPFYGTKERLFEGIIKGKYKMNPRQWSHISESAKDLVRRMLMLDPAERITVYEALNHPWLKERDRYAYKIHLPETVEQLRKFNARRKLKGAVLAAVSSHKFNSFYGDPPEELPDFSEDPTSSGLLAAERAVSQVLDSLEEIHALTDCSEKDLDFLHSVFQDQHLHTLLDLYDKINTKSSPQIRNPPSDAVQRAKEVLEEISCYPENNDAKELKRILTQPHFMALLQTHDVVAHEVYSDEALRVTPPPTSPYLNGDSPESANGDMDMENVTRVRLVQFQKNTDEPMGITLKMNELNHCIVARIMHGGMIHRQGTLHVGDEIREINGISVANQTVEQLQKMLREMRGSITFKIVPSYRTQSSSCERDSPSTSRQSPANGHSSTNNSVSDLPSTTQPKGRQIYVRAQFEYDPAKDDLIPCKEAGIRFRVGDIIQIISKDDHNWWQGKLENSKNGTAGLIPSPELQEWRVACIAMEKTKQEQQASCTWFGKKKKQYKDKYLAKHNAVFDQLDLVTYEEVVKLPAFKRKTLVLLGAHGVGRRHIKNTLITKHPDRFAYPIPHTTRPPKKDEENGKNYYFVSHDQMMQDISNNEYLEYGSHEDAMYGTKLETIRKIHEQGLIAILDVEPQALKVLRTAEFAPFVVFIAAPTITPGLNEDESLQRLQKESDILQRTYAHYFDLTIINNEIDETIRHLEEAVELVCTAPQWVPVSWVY

[11] = target: Platelet-derived growth factor receptor beta (Homo sapiens, UniProt P09619); assay: Selectivity interaction (Ambit KINOMEscan and KiNATiv profiling in Jurkat cells) EUB0000090b PDGFRB; assay type: cell-based; conditions: at 1 µM

Histone-lysine N-methyltransferase, H3 lysine-36 specific (Homo sapiens), sequence (Q96L73 whole entry): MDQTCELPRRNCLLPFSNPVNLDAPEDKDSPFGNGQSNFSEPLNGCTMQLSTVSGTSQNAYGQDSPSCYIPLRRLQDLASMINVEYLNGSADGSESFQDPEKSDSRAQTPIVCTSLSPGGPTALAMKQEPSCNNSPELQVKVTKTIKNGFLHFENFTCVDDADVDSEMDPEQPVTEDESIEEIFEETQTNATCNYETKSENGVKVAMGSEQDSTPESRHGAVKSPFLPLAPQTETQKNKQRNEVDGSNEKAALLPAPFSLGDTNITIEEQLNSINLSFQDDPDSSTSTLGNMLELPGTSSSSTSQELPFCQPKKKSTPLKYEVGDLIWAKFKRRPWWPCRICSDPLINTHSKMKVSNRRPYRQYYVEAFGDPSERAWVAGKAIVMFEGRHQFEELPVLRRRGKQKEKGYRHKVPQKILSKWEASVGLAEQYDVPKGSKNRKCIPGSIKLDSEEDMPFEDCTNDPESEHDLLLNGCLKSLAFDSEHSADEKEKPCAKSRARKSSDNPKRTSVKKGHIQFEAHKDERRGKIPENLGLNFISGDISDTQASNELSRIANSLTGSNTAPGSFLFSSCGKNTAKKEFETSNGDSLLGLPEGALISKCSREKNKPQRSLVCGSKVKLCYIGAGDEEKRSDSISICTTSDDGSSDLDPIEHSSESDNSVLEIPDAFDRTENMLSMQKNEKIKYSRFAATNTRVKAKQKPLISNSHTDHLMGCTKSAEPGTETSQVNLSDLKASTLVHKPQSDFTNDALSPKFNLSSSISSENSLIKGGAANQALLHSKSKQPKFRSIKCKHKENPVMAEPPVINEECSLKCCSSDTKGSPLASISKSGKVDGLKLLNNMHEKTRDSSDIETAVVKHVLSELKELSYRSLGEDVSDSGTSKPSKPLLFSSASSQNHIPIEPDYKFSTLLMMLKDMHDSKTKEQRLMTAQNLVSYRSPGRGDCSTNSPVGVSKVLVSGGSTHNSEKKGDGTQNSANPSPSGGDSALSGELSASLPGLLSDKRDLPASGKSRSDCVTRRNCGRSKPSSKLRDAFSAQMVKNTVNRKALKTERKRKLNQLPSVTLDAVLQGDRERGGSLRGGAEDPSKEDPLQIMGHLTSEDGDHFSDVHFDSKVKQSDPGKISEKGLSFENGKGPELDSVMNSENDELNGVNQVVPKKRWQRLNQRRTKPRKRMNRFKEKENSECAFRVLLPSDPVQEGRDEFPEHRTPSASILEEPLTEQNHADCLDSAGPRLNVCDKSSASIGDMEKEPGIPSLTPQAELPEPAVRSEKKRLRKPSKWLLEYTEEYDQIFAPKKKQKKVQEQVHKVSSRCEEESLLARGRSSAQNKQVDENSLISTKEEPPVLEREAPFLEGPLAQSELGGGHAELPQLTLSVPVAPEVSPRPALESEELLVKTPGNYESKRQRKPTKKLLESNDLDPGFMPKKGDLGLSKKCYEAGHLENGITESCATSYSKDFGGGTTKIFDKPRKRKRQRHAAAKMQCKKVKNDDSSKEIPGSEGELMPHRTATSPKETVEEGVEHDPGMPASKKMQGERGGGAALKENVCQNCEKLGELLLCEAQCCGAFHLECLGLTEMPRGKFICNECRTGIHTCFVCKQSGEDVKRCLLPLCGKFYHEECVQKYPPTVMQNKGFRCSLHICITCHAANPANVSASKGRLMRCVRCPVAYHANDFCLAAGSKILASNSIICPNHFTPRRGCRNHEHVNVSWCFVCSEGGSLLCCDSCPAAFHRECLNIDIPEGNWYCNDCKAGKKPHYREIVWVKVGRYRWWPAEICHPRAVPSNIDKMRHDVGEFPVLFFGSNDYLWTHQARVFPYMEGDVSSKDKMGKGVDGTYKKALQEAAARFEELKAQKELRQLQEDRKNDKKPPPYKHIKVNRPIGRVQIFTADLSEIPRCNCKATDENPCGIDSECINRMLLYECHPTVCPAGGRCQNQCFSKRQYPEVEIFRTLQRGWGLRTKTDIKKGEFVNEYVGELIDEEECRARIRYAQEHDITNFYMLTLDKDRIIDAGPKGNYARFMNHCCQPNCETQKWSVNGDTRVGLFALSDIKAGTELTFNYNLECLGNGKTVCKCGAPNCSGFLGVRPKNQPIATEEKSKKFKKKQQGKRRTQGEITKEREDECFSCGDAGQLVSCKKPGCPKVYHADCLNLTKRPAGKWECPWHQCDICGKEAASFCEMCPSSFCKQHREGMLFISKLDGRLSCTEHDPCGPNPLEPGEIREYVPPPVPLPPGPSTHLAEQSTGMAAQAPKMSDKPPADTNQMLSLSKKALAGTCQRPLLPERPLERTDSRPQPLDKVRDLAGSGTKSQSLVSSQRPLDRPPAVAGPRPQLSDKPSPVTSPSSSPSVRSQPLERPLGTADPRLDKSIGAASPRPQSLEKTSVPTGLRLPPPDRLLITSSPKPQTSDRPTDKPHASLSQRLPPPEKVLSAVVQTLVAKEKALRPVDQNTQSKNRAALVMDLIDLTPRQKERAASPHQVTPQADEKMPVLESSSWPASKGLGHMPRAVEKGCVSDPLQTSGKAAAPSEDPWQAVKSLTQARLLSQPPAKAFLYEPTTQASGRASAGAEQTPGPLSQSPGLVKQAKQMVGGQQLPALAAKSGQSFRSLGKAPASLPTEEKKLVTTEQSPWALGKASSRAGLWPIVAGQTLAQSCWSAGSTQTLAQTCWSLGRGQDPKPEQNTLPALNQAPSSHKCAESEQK

Cc1cc(C)cc([C@H]2c3cc(C)ccc3NC(=O)CN2C(=O)c2ccc(Br)s2)c1
% of activity ([1]; at 1 µM): 100%
% of activity ([1]; at 10 µM): 102%

COc1cc(N(C)c2ccnc3ccc(C(F)(F)F)cc23)cc(OC)c1OC
% binding [2]: 78%
% binding [3]: 69%

CC[C@@H]1[C@H](F)C(=O)N[C@@H]1COc1nccc2cc(C(N)=O)c(OC)cc12 [ZIMLOVISERTIB]
% of inhibition ([4]; at 0.01 µM): 7.9%
% of inhibition ([4]; at 0.04 µM): 2%
% of inhibition ([4]; at 0.2 µM): -17.6%
% of inhibition ([4]; at 1 µM): -0.9%
% of inhibition ([4]; at 5 µM): -0.9%
% of inhibition [5]: 14.5%

CNC(=O)Nc1ccc(-c2nc(N3CC4CCC(C3)O4)c3cnn(C4CCC5(CC4)OCCO5)c3n2)cc1
% of inhibition [6]: 2%
% of inhibition [7]: 2%
% of inhibition [8]: 4%

COCC(=O)NC/C=C/c1ccc2ncnc(Nc3ccc(Oc4ccc(C)nc4)c(C)c3)c2c1 [CP-724714]
% of control [9]: 23%

C=CC(=O)Nc1cc(-n2c(=O)ccc3cnc4ccc(-c5ccc(NS(C)(=O)=O)cc5)cc4c32)ccc1C
% of control ([10]; at 1 µM): 61%
% of control ([10]; at 10 µM): 100%

CN(C)C/C=C/C(=O)Nc1ccc(C(=O)N2CCCC(Nc3ncc(Cl)c(-c4c[nH]c5ccccc45)n3)C2)cc1 (configuration not stated)
% of control [11]: 76%

Source: ChEMBL document CHEMBL5465560, “Selectivity Literature for EUbOPEN Chemogenomic Library” (2024)
